Test results published in patent publication US20140348861A1, “SYNTHETIC PEPTIDES AND RANDOM COPOLYMERS FOR THE TREATMENT OF AUTOIMMUNE DISORDERS” (NATIONAL INSTITUTE OF IMMUNOLOGY, priority 2011, published 2014).
Starred links: 1 amine or outer side, 2 acyl side, 3 side chain; linkers in the order of their positions; H or OH if unused. Non-standard residues stand in square brackets, D forms with d. No end group written: not given here. Kβ = L-β-lysine, O=C(C[C@H](CCCN[*:3])N[*:1])[*:2]; β3hY = N[C@H](CC(=O)O)Cc1ccc(O)cc1; β3hK = NCCCC[C@H](N)CC(=O)O; β3hA = C[C@H](N)CC(=O)O

Tested on: SJL/J mice exhibiting MBP (85-109) induced relapsing remitting form of EAE
Assay: Therapeutic activity in MBP (85-109) induced relapsing remitting EAE, treatment from day 11
Assay type: in vivo
Conditions: SJL/J mice, RR EAE; for Therapeutic activity in comparison to GA (Therapeutic activity (Analogs) − Therapeutic activity GA) / Therapeutic activity in comparison to J5 (Therapeutic activity (Analogs) − Therapeutic activity (J5)): 0.1 mg daily for two weeks; for Therapeutic activity = % reduction in cumulative clinical disability score: synthetic peptides, 0.1 mg daily for two weeks from day 11 post-immunization
Protocol: SJL/J and C57BL6/J mice procured from Jackson's laboratory (Bar Harbor, Me.) were maintained under standard housing conditions in the central animal facility at NII as per institutional ethical committee guidelines. 8-10 week old female SJL/J mice were used throughout the study.
To induce RR EAE or chronic progressive EAE, SJL/J or C57BL6/J mice were immunized subcutaneously with 0.2 mg of MBP (85-109) or 0.1 mg MOG (35-55) emulsified in CFA and 200 ng of pertussis toxin was injected intraperitoneally on day 0 and day 2 so as to permeablize the blood brain barrier. All the animals in various experimental groups were scored daily for clinical disability on a scale of 0-6 where 0=no neurological symptoms, 1=limp tail, 2=weakness of hind limbs or ataxia, 3=incomplete paralysis of hind limbs, 4=complete paralysis of hind limbs, 5=complete paralysis of all four limbs, 6=dead. Diseased animals were provided easy access to food and water.
GA, J91, J92, S101, S102, S103 for two weeks and scored for clinical disability.

KVEAYKAAβAβAβ [Analog S57]
Therapeutic activity in comparison to GA (Therapeutic activity (Analogs) − Therapeutic activity GA): 8.021%
Therapeutic activity in comparison to J5 (Therapeutic activity (Analogs) − Therapeutic activity (J5)): 4.064%
Therapeutic activity = % reduction in cumulative clinical disability score: 39.36%

EKβPKβVβEβAβYβKβAβAβAβAβPAβ [Analog S52]
Therapeutic activity in comparison to GA (Therapeutic activity (Analogs) − Therapeutic activity GA): −1.604%
Therapeutic activity in comparison to J5 (Therapeutic activity (Analogs) − Therapeutic activity (J5)): −5.5615%
Therapeutic activity = % reduction in cumulative clinical disability score: 29.73%

KVEAYKAAAAβ [Analog S55]
Therapeutic activity in comparison to GA (Therapeutic activity (Analogs) − Therapeutic activity GA): −2.781%
Therapeutic activity in comparison to J5 (Therapeutic activity (Analogs) − Therapeutic activity (J5)): −6.738%
Therapeutic activity = % reduction in cumulative clinical disability score: 28.56%

EβKβPKβVβEAYβKβAβAβAβAβPAβ [Analog S54]
Therapeutic activity in comparison to GA (Therapeutic activity (Analogs) − Therapeutic activity GA): −1.6E−06%
Therapeutic activity in comparison to J5 (Therapeutic activity (Analogs) − Therapeutic activity (J5)): −3.957%
Therapeutic activity = % reduction in cumulative clinical disability score: 31.3369%

EKPKVEAYKAAAAPAβ^3 [Analog S1]
Therapeutic activity in comparison to GA (Therapeutic activity (Analogs) − Therapeutic activity GA): 2.995%
Therapeutic activity in comparison to J5 (Therapeutic activity (Analogs) − Therapeutic activity (J5)): −0.9626%
Therapeutic activity = % reduction in cumulative clinical disability score: 34.33%

EKPKVβ^3Eβ^3Aβ^3Yβ^3Kβ^3Aβ^3Aβ^3Aβ^3Aβ^3Pβ^3Aβ^3 [Analog S11]
Therapeutic activity in comparison to GA (Therapeutic activity (Analogs) − Therapeutic activity GA): 23.53%
Therapeutic activity in comparison to J5 (Therapeutic activity (Analogs) − Therapeutic activity (J5)): 19.57%
Therapeutic activity = % reduction in cumulative clinical disability score: 54.87%

KVEAβ^3Yβ^3Kβ^3Aβ^3Aβ^3Aβ^3Aβ^3 [Analog S23]
Therapeutic activity in comparison to GA (Therapeutic activity (Analogs) − Therapeutic activity GA): 22.14%
Therapeutic activity in comparison to J5 (Therapeutic activity (Analogs) − Therapeutic activity (J5)): 18.18%
Therapeutic activity = % reduction in cumulative clinical disability score: 53.48%

KVEAYKAβ^3Aβ^3Aβ^3Aβ^3 (KVEAYK[β3hA][β3hA][β3hA][β3hA]) [Analog S20]
Therapeutic activity in comparison to GA (Therapeutic activity (Analogs) − Therapeutic activity GA): 16.9%
Therapeutic activity in comparison to J5 (Therapeutic activity (Analogs) − Therapeutic activity (J5)): 12.94%
Therapeutic activity = % reduction in cumulative clinical disability score: 48.24%

VEβAβYβKβ [Analog S76]
Therapeutic activity in comparison to GA (Therapeutic activity (Analogs) − Therapeutic activity GA): −7.914%
Therapeutic activity in comparison to J5 (Therapeutic activity (Analogs) − Therapeutic activity (J5)): −11.8717%
Therapeutic activity = % reduction in cumulative clinical disability score: 23.42%

EKPKVEAβ^3Yβ^3Kβ^3Aβ^3Aβ^3Aβ^3Aβ^3Pβ^3Aβ^3 [Analog S9]
Therapeutic activity in comparison to GA (Therapeutic activity (Analogs) − Therapeutic activity GA): 23.74%
Therapeutic activity in comparison to J5 (Therapeutic activity (Analogs) − Therapeutic activity (J5)): 19.79%
Therapeutic activity = % reduction in cumulative clinical disability score: 55.08%

VEAβYβKβ [Analog S75]
Therapeutic activity in comparison to GA (Therapeutic activity (Analogs) − Therapeutic activity GA): −5.5615%
Therapeutic activity in comparison to J5 (Therapeutic activity (Analogs) − Therapeutic activity (J5)): −9.519%
Therapeutic activity = % reduction in cumulative clinical disability score: 25.7754%

KVEβ^3Aβ^3Yβ^3Kβ^3 [Analog S31]
Therapeutic activity in comparison to GA (Therapeutic activity (Analogs) − Therapeutic activity GA): −1.818%
Therapeutic activity in comparison to J5 (Therapeutic activity (Analogs) − Therapeutic activity (J5)): −5.7754%
Therapeutic activity = % reduction in cumulative clinical disability score: 29.52%

KVEAYβ^3Kβ^3 (KVEA[β3hY][β3hK]) [Analog S29]
Therapeutic activity in comparison to GA (Therapeutic activity (Analogs) − Therapeutic activity GA): −1.07%
Therapeutic activity in comparison to J5 (Therapeutic activity (Analogs) − Therapeutic activity (J5)): −5.027%
Therapeutic activity = % reduction in cumulative clinical disability score: 30.27%

EKPKβVβEβAβYβKβAβAβAβAβPAβ [Analog S51]
Therapeutic activity in comparison to GA (Therapeutic activity (Analogs) − Therapeutic activity GA): −4.92%
Therapeutic activity in comparison to J5 (Therapeutic activity (Analogs) − Therapeutic activity (J5)): −8.877%
Therapeutic activity = % reduction in cumulative clinical disability score: 26.42%

EKPKVEAYKAβAβAβAβPAβ [Analog S45]
Therapeutic activity in comparison to GA (Therapeutic activity (Analogs) − Therapeutic activity GA): 23.53%
Therapeutic activity in comparison to J5 (Therapeutic activity (Analogs) − Therapeutic activity (J5)): 19.57%
Therapeutic activity = % reduction in cumulative clinical disability score: 54.87%

KVEAYKAβAβAβAβ [Analog S58]
Therapeutic activity in comparison to GA (Therapeutic activity (Analogs) − Therapeutic activity GA): 11.02%
Therapeutic activity in comparison to J5 (Therapeutic activity (Analogs) − Therapeutic activity (J5)): 7.059%
Therapeutic activity = % reduction in cumulative clinical disability score: 42.35%

EKPKVEAYβKβAβAβAβAβPAβ [Analog S47]
Therapeutic activity in comparison to GA (Therapeutic activity (Analogs) − Therapeutic activity GA): 20.96%
Therapeutic activity in comparison to J5 (Therapeutic activity (Analogs) − Therapeutic activity (J5)): 17.01%
Therapeutic activity = % reduction in cumulative clinical disability score: 52.3%

EKPβ^3Kβ^3Vβ^3Eβ^3Aβ^3Yβ^3Kβ^3Aβ^3Aβ^3Aβ^3Aβ^3Pβ^3Aβ^3 [Analog S13]
Therapeutic activity in comparison to GA (Therapeutic activity (Analogs) − Therapeutic activity GA): 24.71%
Therapeutic activity in comparison to J5 (Therapeutic activity (Analogs) − Therapeutic activity (J5)): 20.75%
Therapeutic activity = % reduction in cumulative clinical disability score: 56.04%

KVEAYK (Peptide analog) [Analog J5b, reference compound]
Therapeutic activity in comparison to GA (Therapeutic activity (Analogs) − Therapeutic activity GA): −10.9091%
Therapeutic activity in comparison to J5 (Therapeutic activity (Analogs) − Therapeutic activity (J5)): −14.8663%
Therapeutic activity = % reduction in cumulative clinical disability score: 20.43%

EKPKVEAYKβAβAβAβAβPAβ (EKPKVEAY[Kβ]XXXXPX; not fully specified (residues 10, 11, 12, 13, 15); printed as EKPKVEAYKβAβAβAβAβPAβ) [Analog S46]
Therapeutic activity in comparison to GA (Therapeutic activity (Analogs) − Therapeutic activity GA): 21.93%
Therapeutic activity in comparison to J5 (Therapeutic activity (Analogs) − Therapeutic activity (J5)): 17.97%
Therapeutic activity = % reduction in cumulative clinical disability score: 53.26%

KVEAYβ^3Kβ^3Aβ^3Aβ^3Aβ^3Aβ^3 [Analog S22]
Therapeutic activity in comparison to GA (Therapeutic activity (Analogs) − Therapeutic activity GA): 17.43%
Therapeutic activity in comparison to J5 (Therapeutic activity (Analogs) − Therapeutic activity (J5)): 13.48%
Therapeutic activity = % reduction in cumulative clinical disability score: 48.77%

Kβ^3Vβ^3Eβ^3Aβ^3Yβ^3Kβ^3 [Analog S33]
Therapeutic activity in comparison to GA (Therapeutic activity (Analogs) − Therapeutic activity GA): 14.44%
Therapeutic activity in comparison to J5 (Therapeutic activity (Analogs) − Therapeutic activity (J5)): 10.48%
Therapeutic activity = % reduction in cumulative clinical disability score: 45.7754%

KVEAYβKβAβAβAβAβ [Analog S60]
Therapeutic activity in comparison to GA (Therapeutic activity (Analogs) − Therapeutic activity GA): 10.05%
Therapeutic activity in comparison to J5 (Therapeutic activity (Analogs) − Therapeutic activity (J5)): 6.096%
Therapeutic activity = % reduction in cumulative clinical disability score: 41.39%

Eβ^3Kβ^3Pβ^3Kβ^3Vβ^3EAYβ^3Kβ^3Aβ^3Aβ^3Aβ^3Aβ^3Pβ^3Aβ^3 [Analog S16]
Therapeutic activity in comparison to GA (Therapeutic activity (Analogs) − Therapeutic activity GA): 28.88%
Therapeutic activity in comparison to J5 (Therapeutic activity (Analogs) − Therapeutic activity (J5)): 24.92%
Therapeutic activity = % reduction in cumulative clinical disability score: 60.2139%

KVβ^3Eβ^3Aβ^3Yβ^3Kβ^3Aβ^3Aβ^3Aβ^3Aβ^3 [Analog S25]
Therapeutic activity in comparison to GA (Therapeutic activity (Analogs) − Therapeutic activity GA): 22.25%
Therapeutic activity in comparison to J5 (Therapeutic activity (Analogs) − Therapeutic activity (J5)): 18.29%
Therapeutic activity = % reduction in cumulative clinical disability score: 53.58%

KβVβEβAβYβKβ [Analog S71]
Therapeutic activity in comparison to GA (Therapeutic activity (Analogs) − Therapeutic activity GA): −14.9519%
Therapeutic activity in comparison to J5 (Therapeutic activity (Analogs) − Therapeutic activity (J5)): −18.9091%
Therapeutic activity = % reduction in cumulative clinical disability score: 16.39%

KVβEβAβYβKβAβAβAβAβ [Analog S63]
Therapeutic activity in comparison to GA (Therapeutic activity (Analogs) − Therapeutic activity GA): −9.305%
Therapeutic activity in comparison to J5 (Therapeutic activity (Analogs) − Therapeutic activity (J5)): −13.262%
Therapeutic activity = % reduction in cumulative clinical disability score: 22.03%

EKPKVEAYKAAAAβPAβ [Analog S42]
Therapeutic activity in comparison to GA (Therapeutic activity (Analogs) − Therapeutic activity GA): 3.316%
Therapeutic activity in comparison to J5 (Therapeutic activity (Analogs) − Therapeutic activity (J5)): −0.6417%
Therapeutic activity = % reduction in cumulative clinical disability score: 34.65%
